PubChem BioAssay (NCI)
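A five-concentration, 48-hour dose response in 96-well plates underlies each endpoint, interpolated linearly between surrounding concentrations. At the GI50, growth is halved. At the TGI there is no net growth.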

How the values were obtained:
Assay in all cases: NCI tumour cell line growth inhibition, 48 h
[1] = tested on: LOX IMVI melanoma
[2] = tested on: MDA-MB-231 breast
[3] = tested on: SF-539 CNS
[4] = tested on: HCT-116 colon
[5] = tested on: MOLT-4 leukemia
[6] = tested on: HT29 colon
[7] = tested on: MCF7 breast
[8] = tested on: RPMI-8226 leukemia
[9] = tested on: SF-268 CNS
[10] = tested on: SR leukemia
[11] = tested on: NCI/ADR-RES ovarian

SMILES | TGI [1] [µM] | TGI [2] [µM] | TGI [3] [µM] | TGI [4] [µM] | TGI [5] [µM] | TGI [6] [µM] | TGI [7] [µM] | TGI [8] [µM] | TGI [9] [µM] | TGI [10] [µM] | TGI [11] [µM] | GI50 [1] [µM] | GI50 [2] [µM] | GI50 [4] [µM] | GI50 [5] [µM] | GI50 [6] [µM] | GI50 [7] [µM] | GI50 [8] [µM] | GI50 [10] [µM] | GI50 [11] [µM]
Oc1ccccc1C=Nc1ccc(-c2nc3ccccc3[nH]2)cc1 | > 100 | > 100 | > 100 | > 100 | > 100 | > 100 | > 100 | > 100 | > 100 | > 100 | 53.2 | – | – | – | – | – | – | – | – | –
COc1cc(C)cc2c1c(=O)c1ccccc1n2C | 53.6 | > 100 | 38.4 | 76.3 | > 100 | > 100 | > 100 | 66 | > 100 | 78.7 | > 100 | – | – | – | – | – | – | – | – | –
C[C@]12Cc3cnn(-c4ccc(F)cc4)c3NC1CC[C@@H]1C2CC[C@@]2(C)C1CC[C@@H]2O (stereo not given in full) | – | 46.9 | 8.56 | 16.6 | 16.3 | 3.81 | 36.7 | – | 37.9 | 12.8 | – | – | – | – | – | – | – | – | – | –
Cc1cc(-c2nc3ccccc3s2)ccc1N | > 78.5 | > 88.2 | > 91.6 | > 78.7 | 82.2 | > 87.3 | > 100 | > 100 | > 83.8 | > 89.8 | > 87.6 | – | – | – | – | – | – | – | – | –
CCCCSC1=N/C(=C\c2ccc(N(C)C)cc2)C(NN)=N1 | > 100 | > 100 | – | > 100 | > 100 | > 100 | > 100 | > 100 | > 100 | – | > 100 | – | – | – | – | – | – | – | – | –
Cc1cccc(CC(Cc2c(C)cccc2C(=O)O)C(=O)O)c1 (stereo not given) | > 100 | > 100 | > 100 | > 100 | > 100 | > 100 | > 100 | > 100 | > 100 | > 100 | > 100 | – | – | – | – | – | – | – | – | –
N#CC(C#N)=C(N)/C(C#N)=C/c1ccc2ccccc2n1 | 46 | 72.5 | – | 28.4 | 97.9 | 35.9 | > 100 | > 100 | > 100 | – | > 100 | – | – | – | – | – | – | – | – | –
O=C(Nc1nn(C(=O)c2ccc(Cl)cc2)c(=O)s1)c1ccc(Cl)cc1 | > 100 | > 100 | – | > 100 | > 100 | > 100 | > 100 | – | > 100 | > 100 | > 100 | – | – | – | – | – | – | – | – | –
CC1(C)CC23CC(C)(C)c4cccc(c42)OCc2ccc4ccc5ccc(nc5c4n2)COc2cccc1c23 | > 50 | > 50 | > 50 | > 50 | > 50 | > 50 | > 50 | > 50 | > 50 | > 50 | > 50 | – | – | – | – | – | – | – | – | –
Cc1ccc(N=N/C(=N/NC(=O)c2cc(Cl)ccc2C(=O)c2ccccc2)c2ccc(N(CCC#N)CCC#N)cc2C)cc1 | – | 24.8 | – | 31.5 | 26.2 | 39.9 | 15.2 | 96.9 | > 100 | – | 62.1 | – | – | – | – | – | – | – | – | –
COc1ccc(/C=C2\CCC(C)/C(=C\c3ccc(OC)c(OC)c3)C2=O)cc1OC (stereo not given) | 19.2 | 60.8 | 13.8 | 14.3 | 11.7 | 52.9 | 22.3 | 8.01 | 45.1 | – | 32.5 | – | – | – | – | – | – | – | – | –
CC(C)(C)OC(=O)N(O)CCCn1cnc2c(N)ncnc21 | > 100 | > 100 | > 100 | > 100 | > 100 | > 100 | > 100 | > 100 | > 100 | > 100 | > 100 | – | – | – | – | – | – | – | – | –
Nc1nc(Cl)cc(OCC2(CO)CC(OCc3ccccc3)C2)n1 (stereo not given) | – | – | – | – | 95.5 | – | – | – | – | – | – | 45.6 | 26.2 | 64 | 22 | 33.9 | 46.2 | 26.7 | 40.6 | 45.8
CCCCOC(=O)NC(Nc1cccc(C(F)(F)F)c1)(C(F)(F)F)C(F)(F)F | > 100 | > 100 | > 100 | > 100 | > 100 | > 100 | > 100 | 61.5 | > 100 | 60.4 | > 100 | – | – | – | – | – | – | – | – | –
CCOC(=O)C(C(=O)c1ccccc1C(=O)OC)=P(c1ccccc1)(c1ccccc1)c1ccccc1 | > 10 | > 10 | > 10 | > 10 | > 10 | > 10 | > 10 | > 10 | > 10 | – | > 10 | – | – | – | – | – | – | – | – | –
CC(=O)NNc1nc(C)c(C(/C=C/c2ccc([N+](=O)[O-])cc2)=N/NC(N)=S)s1 | > 100 | > 100 | > 100 | > 100 | > 100 | > 100 | > 100 | > 100 | > 100 | > 100 | > 100 | – | – | – | – | – | – | – | – | –
CCN(CC)C(=S)SS(=O)(=O)c1ccc(Cl)cc1 | 29.2 | > 100 | 43.5 | > 100 | – | 32.1 | – | 43.2 | > 100 | 21.1 | > 100 | – | – | – | – | – | – | – | – | –
CC1=CCC2C3(C)CCC2(C(C)C)C1C3 (stereo not given) (tested in a mixture with another compound) | 87.8 | 55.6 | 87.4 | > 100 | 75.3 | 32.4 | 34.3 | 56.7 | 36.1 | – | 37.7 | – | – | – | – | – | – | – | – | –
CCN(CC)CCN1C(=O)c2c(c(-c3ccccc3)c3ccccc3c2-c2ccccc2)C1=O | > 100 | > 100 | > 100 | > 100 | > 100 | > 100 | > 100 | > 100 | > 100 | – | > 100 | – | – | – | – | – | – | – | – | –
